Experimental data as given in US20240025884A1 (Dong-A ST Co., Ltd., priority 2022, published 2024).

Target: GCN2 (Homo sapiens (Human), UniProt Q9P2K8)
Assay: GCN2 Biochemical Assay (TR-FRET, GFP-eIF2S1 substrate phosphorylation)
Conditions: read-out: IC50 (GCN2 Inhibitory Activity)
Procedure, shortened: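 TR-FRET readout (Ex 340, Em 490/520 nm) after 2–3 h with Tb-labelled phospho-eIF2S1 antibody in stop mix, following a 70 min room-temperature kinase step. Reaction: in-house GCN2, GFP-eIF2S1, ATP, tRNA in Tris pH 7.5 (2× stocks 1.6 nM, 50 nM, 0.2 mM); compounds tested at 10 concentrations, with a phospho-substrate artifact counter-plate.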

GCN2, sequence (Q9P2K8 whole entry): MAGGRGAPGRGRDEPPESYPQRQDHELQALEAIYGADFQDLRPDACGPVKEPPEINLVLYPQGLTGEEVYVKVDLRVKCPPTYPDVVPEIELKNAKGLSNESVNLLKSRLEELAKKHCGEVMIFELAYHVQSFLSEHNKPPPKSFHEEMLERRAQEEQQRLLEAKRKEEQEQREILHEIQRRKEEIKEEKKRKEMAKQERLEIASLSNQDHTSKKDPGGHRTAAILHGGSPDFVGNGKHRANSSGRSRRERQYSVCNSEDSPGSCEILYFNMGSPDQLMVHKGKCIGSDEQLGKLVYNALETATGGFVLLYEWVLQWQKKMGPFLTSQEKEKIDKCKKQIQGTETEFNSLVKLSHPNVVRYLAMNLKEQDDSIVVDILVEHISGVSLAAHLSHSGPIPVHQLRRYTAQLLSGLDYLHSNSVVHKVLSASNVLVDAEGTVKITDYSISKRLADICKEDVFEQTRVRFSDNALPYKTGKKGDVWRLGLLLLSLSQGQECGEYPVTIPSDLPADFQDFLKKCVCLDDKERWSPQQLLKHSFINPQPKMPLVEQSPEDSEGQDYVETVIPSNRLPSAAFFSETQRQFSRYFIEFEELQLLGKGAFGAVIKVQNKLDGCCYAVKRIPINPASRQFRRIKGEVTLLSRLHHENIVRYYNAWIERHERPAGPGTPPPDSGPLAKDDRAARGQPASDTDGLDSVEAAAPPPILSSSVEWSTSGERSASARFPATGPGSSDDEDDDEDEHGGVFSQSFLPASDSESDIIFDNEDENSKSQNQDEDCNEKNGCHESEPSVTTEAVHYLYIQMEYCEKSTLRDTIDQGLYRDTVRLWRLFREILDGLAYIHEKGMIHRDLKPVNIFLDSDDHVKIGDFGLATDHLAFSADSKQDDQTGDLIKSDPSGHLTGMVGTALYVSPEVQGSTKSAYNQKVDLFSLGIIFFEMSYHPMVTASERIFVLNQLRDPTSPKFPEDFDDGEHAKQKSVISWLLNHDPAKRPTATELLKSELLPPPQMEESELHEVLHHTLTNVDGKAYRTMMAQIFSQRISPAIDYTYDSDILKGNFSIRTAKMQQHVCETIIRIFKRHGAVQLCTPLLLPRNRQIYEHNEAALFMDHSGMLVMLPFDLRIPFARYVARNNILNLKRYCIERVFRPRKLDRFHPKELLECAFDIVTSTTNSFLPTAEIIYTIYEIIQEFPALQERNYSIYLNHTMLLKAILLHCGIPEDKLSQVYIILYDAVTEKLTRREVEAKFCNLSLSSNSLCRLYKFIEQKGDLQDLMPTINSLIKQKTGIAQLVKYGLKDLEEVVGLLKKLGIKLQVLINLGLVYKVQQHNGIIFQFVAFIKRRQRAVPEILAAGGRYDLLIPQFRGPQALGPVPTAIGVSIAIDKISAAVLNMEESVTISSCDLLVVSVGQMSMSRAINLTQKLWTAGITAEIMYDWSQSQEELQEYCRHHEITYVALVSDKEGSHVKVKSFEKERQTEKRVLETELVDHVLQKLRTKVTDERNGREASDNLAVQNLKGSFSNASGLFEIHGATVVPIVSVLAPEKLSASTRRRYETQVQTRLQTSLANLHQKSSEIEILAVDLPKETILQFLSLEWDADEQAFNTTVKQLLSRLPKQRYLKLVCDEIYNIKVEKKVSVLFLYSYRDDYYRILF

SMILES	IC50 [nM]
Cc1cnc(Nc2cc(C)n(C)n2)nc1-c1c[nH]c2c(NC(=O)CN3CC[C@H](Oc4cc[nH]n4)C3)cccc12 [Example 116, (S)-2-(3-((1H-pyrazol-3-yl)oxy)pyrrolidin-1-yl)-N-(3-(2-((1,5-dimethyl-1H-pyrazol-3-yl)amino)-5-methylpyrimidin-4-yl)-1H-indol-7-yl)acetamide]	10 to 100
Cc1cnc(Nc2cc(C)n(C)n2)nc1-c1c[nH]c2c(NC(=O)CN3CC[C@H](Oc4ccon4)C3)cccc12 [Example 118, (S)-N-(3-(2-((1,5-dimethyl-1H-pyrazol-3-yl)amino)-5-methylpyrimidin-4-yl)-1H-indol-7-yl)-2-(3-(isoxazol-3-yloxy)pyrrolidin-1-yl)acetamide]	< 10
Cc1cnc(Nc2cc(C)n(C)n2)nc1-c1c[nH]c2c(NC(=O)CN3CC[C@H](Oc4cc(N)[nH]n4)C3)cccc12 [Example 119, (S)-2-(3-((5-amino-1H-pyrazol-3-yl)oxy)pyrrolidin-1-yl)-N-(3-(2-((1,5-dimethyl-1H-pyrazol-3-yl)amino)-5-methylpyrimidin-4-yl)-1H-indol-7-yl)acetamide]	10 to 100
COC(=O)c1[nH]ccc1O[C@H]1CCN(CC(=O)Nc2cccc3c(-c4nc(Nc5cc(C)n(C)n5)ncc4C)c[nH]c23)C1 [Example 120, methyl (S)-3-((1-(2-((3-(2-((1,5-dimethyl-1H-pyrazol-3-yl)amino)-5-methylpyrimidin-4-yl)-1H-indol-7-yl)amino)-2-oxoethyl)pyrrolidin-3-yl)oxy)-1H-pyrrole-2-carboxylate]	< 10
CCOC(=O)c1cnoc1O[C@H]1CCN(CC(=O)Nc2cccc3c(-c4nc(Nc5cc(C)n(C)n5)ncc4C)c[nH]c23)C1 [Example 121, ethyl (S)-5-((1-(2-((3-(2-((1,5-dimethyl-1H-pyrazol-3-yl)amino)-5-methylpyrimidin-4-yl)-1H-indol-7-yl)amino)-2-oxoethyl)pyrrolidin-3-yl)oxy)isoxazole-4-carboxylate]	< 10
Cc1cnc(Nc2cc(C)n(C)n2)nc1-c1c[nH]c2c(NC(=O)CN3CC[C@H](Oc4cc(C(N)=O)on4)C3)cccc12 [Example 122, (S)-3-((1-(2-((3-(2-((1,5-dimethyl-1H-pyrazol-3-yl)amino)-5-methylpyrimidin-4-yl)-1H-indol-7-yl)amino)-2-oxoethyl)pyrrolidin-3-yl)oxy)isoxazole-5-carboxamide]	10 to 100
CNC(=O)c1cc(O[C@H]2CCN(CC(=O)Nc3cccc4c(-c5nc(Nc6cc(C)n(C)n6)ncc5C)c[nH]c34)C2)no1 [Example 123, (S)-3-((1-(2-((3-(2-((1,5-dimethyl-1H-pyrazol-3-yl)amino)-5-methylpyrimidin-4-yl)-1H-indol-7-yl)amino)-2-oxoethyl)pyrrolidin-3-yl)oxy)-N-methylisoxazole-5-carboxamide]	10 to 100
Cc1cnc(Nc2cc(C)n(C)n2)nc1-c1c[nH]c2c(NC(=O)CN3CC[C@H](Oc4cc(C(=O)NC5CC5)on4)C3)cccc12 [Example 124, (S)-N-cyclopropyl-3-((1-(2-((3-(2-((1,5-dimethyl-1H-pyrazol-3-yl)amino)-5-methylpyrimidin-4-yl)-1H-indol-7-yl)amino)-2-oxoethyl)pyrrolidin-3-yl)oxy)isoxazole-5-carboxamide]	< 10
Cc1cnc(Nc2cc(C)n(C)n2)nc1-c1c[nH]c2c(NC(=O)CN3CC[C@H](Oc4cc(C(=O)N(C)C)on4)C3)cccc12 [Example 125, (S)-3-((1-(2-((3-(2-((1,5-dimethyl-1H-pyrazol-3-yl)amino)-5-methylpyrimidin-4-yl)-1H-indol-7-yl)amino)-2-oxoethyl)pyrrolidin-3-yl)oxy)-N,N-dimethylisoxazole-5-carboxamide]	10 to 100
Cc1cnc(Nc2cc(C)n(C)n2)nc1-c1c[nH]c2c(NC(=O)CN3CC[C@H](Oc4ncc(C(=O)NC5CC5)o4)C3)cccc12 [Example 126, (S)-N-cyclopropyl-2-((1-(2-((3-(2-((1,5-dimethyl-1H-pyrazol-3-yl)amino)-5-methylpyrimidin-4-yl)-1H-indol-7-yl)amino)-2-oxoethyl)pyrrolidin-3-yl)oxy)oxazole-5-carboxamide]	10 to 100
Cc1cnc(Nc2cc(C)n(C)n2)nc1-c1c[nH]c2c(NC(=O)CN3CC[C@H](Oc4nc(C(=O)NC5CC5)co4)C3)cccc12 [Example 127, (S)-N-cyclopropyl-2-((1-(2-((3-(2-((1,5-dimethyl-1H-pyrazol-3-yl)amino)-5-methylpyrimidin-4-yl)-1H-indol-7-yl)amino)-2-oxoethyl)pyrrolidin-3-yl)oxy)oxazole-4-carboxamide]	10 to 100
Cc1cnc(Nc2cc(C)n(C)n2)nc1-c1c[nH]c2c(NC(=O)CN3CC[C@H](Oc4cncc(C(N)=O)n4)C3)cccc12 [Example 132, (S)-6-((1-(2-((3-(2-((1,5-dimethyl-1H-pyrazol-3-yl)amino)-5-methylpyrimidin-4-yl)-1H-indol-7-yl)amino)-2-oxoethyl)pyrrolidin-3-yl)oxy)pyrazine-2-carboxamide]	< 10
CNC(=O)c1cncc(O[C@H]2CCN(CC(=O)Nc3cccc4c(-c5nc(Nc6cc(C)n(C)n6)ncc5C)c[nH]c34)C2)n1 [Example 133, (S)-6-((1-(2-((3-(2-((1,5-dimethyl-1H-pyrazol-3-yl)amino)-5-methylpyrimidin-4-yl)-1H-indol-7-yl)amino)-2-oxoethyl)pyrrolidin-3-yl)oxy)-N-methylpyrazine-2-carboxamide]	< 10
Cc1cnc(Nc2cc(C)n(C)n2)nc1-c1c[nH]c2c(NC(=O)CN3CC[C@H](Oc4nc(N)nc(N)n4)C3)cccc12 [Example 138, (S)-2-(3-((4,6-diamino-1,3,5-triazin-2-yl)oxy)pyrrolidin-1-yl)-N-(3-(2-((1,5-dimethyl-1H-pyrazol-3-yl)amino)-5-methylpyrimidin-4-yl)-1H-indol-7-yl)acetamide]	< 10
Cc1cnc(Nc2cc(C)n(C)n2)nc1-c1c[nH]c2c(NC(=O)CN3CC[C@H](Oc4nc(N)nc(N5CCCC5)n4)C3)cccc12 [Example 139, (S)-2-(3-((4-amino-6-(pyrrolidin-1-yl)-1,3,5-triazin-2-yl)oxy)pyrrolidin-1-yl)-N-(3-(2-((1,5-dimethyl-1H-pyrazol-3-yl)amino)-5-methylpyrimidin-4-yl)-1H-indol-7-yl)acetamide]	< 10

Now from value to compound:

IC50 [nM]	SMILES
10 to 100	Cc1cnc(Nc2cc(C)n(C)n2)nc1-c1c[nH]c2c(NC(=O)CN3CC[C@H](Oc4nccc(C(=O)O)n4)C3)cccc12 [Example 128, (S)-2-((1-(2-((3-(2-((1,5-dimethyl-1H-pyrazol-3-yl)amino)-5-methylpyrimidin-4-yl)-1H-indol-7-yl)amino)-2-oxoethyl)pyrrolidin-3-yl)oxy)pyrimidine-4-carboxylic acid]
10 to 100	Cc1cnc(Nc2cc(C)n(C)n2)nc1-c1c[nH]c2c(NC(=O)CN3CC[C@H](Oc4nccc(C(N)=O)n4)C3)cccc12 [Example 129, (S)-2-((1-(2-((3-(2-((1,5-dimethyl-1H-pyrazol-3-yl)amino)-5-methylpyrimidin-4-yl)-1H-indol-7-yl)amino)-2-oxoethyl)pyrrolidin-3-yl)oxy)pyrimidine-4-carboxamide]
10 to 100	CNC(=O)c1ccnc(O[C@H]2CCN(CC(=O)Nc3cccc4c(-c5nc(Nc6cc(C)n(C)n6)ncc5C)c[nH]c34)C2)n1 [Example 130, (S)-2-((1-(2-((3-(2-((1,5-dimethyl-1H-pyrazol-3-yl)amino)-5-methylpyrimidin-4-yl)-1H-indol-7-yl)amino)-2-oxoethyl)pyrrolidin-3-yl)oxy)-N-methylpyrimidine-4-carboxamide]
10 to 100	Cc1cnc(Nc2cc(C)n(C)n2)nc1-c1c[nH]c2c(NC(=O)CN3CC[C@H](Oc4nccc(C(=O)N(C)C)n4)C3)cccc12 [Example 131, (S)-2-((1-(2-((3-(2-((1,5-dimethyl-1H-pyrazol-3-yl)amino)-5-methylpyrimidin-4-yl)-1H-indol-7-yl)amino)-2-oxoethyl)pyrrolidin-3-yl)oxy)-N,N-dimethylpyrimidine-4-carboxamide]
< 10	Cc1cnc(Nc2cc(C)n(C)n2)nc1-c1c[nH]c2c(NC(=O)CN3CC[C@H](Oc4ncnc(N)n4)C3)cccc12 [Example 134, (S)-2-(3-((4-amino-1,3,5-triazin-2-yl)oxy)pyrrolidin-1-yl)-N-(3-(2-((1,5-dimethyl-1H-pyrazol-3-yl)amino)-5-methylpyrimidin-4-yl)-1H-indol-7-yl)acetamide]
< 10	CNc1ncnc(O[C@H]2CCN(CC(=O)Nc3cccc4c(-c5nc(Nc6cc(C)n(C)n6)ncc5C)c[nH]c34)C2)n1 [Example 135, (S)-N-(3-(2-((1,5-dimethyl-1H-pyrazol-3-yl)amino)-5-methylpyrimidin-4-yl)-1H-indol-7-yl)-2-(3-((4-(methylamino)-1,3,5-triazin-2-yl)oxy)pyrrolidin-1-yl)acetamide]
< 10	Cc1cnc(Nc2cc(C)n(C)n2)nc1-c1c[nH]c2c(NC(=O)CN3CC[C@H](Oc4ncnc(N(C)C)n4)C3)cccc12 [Example 136, (S)-N-(3-(2-((1,5-dimethyl-1H-pyrazol-3-yl)amino)-5-methylpyrimidin-4-yl)-1H-indol-7-yl)-2-(3-((4-(dimethylamino)-1,3,5-triazin-2-yl)oxy)pyrrolidin-1-yl)acetamide]
< 10	Cc1cnc(Nc2cc(C)n(C)n2)nc1-c1c[nH]c2c(NC(=O)CN3CC[C@H](Oc4ncnc(NC5CC5)n4)C3)cccc12 [Example 137, (S)-2-(3-((4-(cyclopropylamino)-1,3,5-triazin-2-yl)oxy)pyrrolidin-1-yl)-N-(3-(2-((1,5-dimethyl-1H-pyrazol-3-yl)amino)-5-methylpyrimidin-4-yl)-1H-indol-7-yl)acetamide]
< 10	Cc1cnc(Nc2cc(C)n(C)n2)nc1-c1c[nH]c2c(NC(=O)CN3CC[C@H](Oc4cc(N)ncn4)C3)cccc12 [Example 140, (S)-2-(3-((6-aminopyrimidin-4-yl)oxy)pyrrolidin-1-yl)-N-(3-(2-((1,5-dimethyl-1H-pyrazol-3-yl)amino)-5-methylpyrimidin-4-yl)-1H-indol-7-yl)acetamide]
